Results published in PubChem BioAssay AID1399 (The Scripps Research Institute Molecular Screening Center, 2008).
Calls of active or inactive are those of the source. No cut-off is given here; in the data, nearly all actives have IC50 up to about 8.9 µM.

target: Signal transducer and activator of transcription 3 (Homo sapiens) (UniProt P40763); assay: blockers of STAT3 signaling, concentration series – cell-based, dose response (AID 1399); details: human cell STAT3 reporter inhibition

Point of comparison: COc1ccc(-c2nn(C)c(=O)c3ccccc23)cc1NC(=O)COc1ccc(C)cc1, IC50 5.06 µM. Against it:
- Nc1cc(-c2ccccc2)nn1Cc1ccc(Cl)cc1 — within 1.5-fold, 6.76 µM
- Cc1cccc(-c2nc3cc(NC(=O)C4CCCO4)ccc3o2)c1 (centres undefined) — within 1.5-fold, 6.32 µM
- O=C(COc1ccc2ccccc2c1)Nc1ccncc1 — within 1.5-fold, 6.11 µM
- Cc1nc(CNS(=O)(=O)c2ccc(Oc3ccccc3)cc2)cs1 — within 1.5-fold, 5.54 µM
- O=C(Nc1nccs1)c1ccc(S(=O)(=O)NCC2CCCCC2)cc1 — 1.7-fold lower, 3.03 µM
- O=C(Nc1nc(-c2ccc(Cl)s2)cs1)c1ccncc1 — within 1.5-fold, 4.01 µM
- O=c1c2c(nc3n1CCCCC3)sc1c(O)cccc12 — within 1.5-fold, 7.42 µM
- O=C(Nc1ccn(Cc2ccccc2F)n1)c1ccc(COc2ccc(Br)cc2)cc1 — 1.7-fold lower, 2.9 µM
- COC(=O)c1cccc(NC(=O)CSc2nc3cccnc3n2C)c1 — within 1.5-fold, 5.35 µM
- CCOC(=O)Cc1csc(SCC(=O)c2c(N)n(CC(C)C)c(=O)n(C)c2=O)n1 — within 1.5-fold, 3.7 µM
- O=C(Nc1ccncc1)c1ccc(-c2ccccc2)cc1 — 2.3-fold lower, 2.16 µM
- CCOc1cc(C(=S)N2CCOCC2)ccc1OS(=O)(=O)c1ccc(NC(C)=O)cc1 — within 1.5-fold, 5.23 µM
- O=C(Nc1ccc(Cc2ccncc2)cc1)c1ccc(S(=O)(=O)N2CCOCC2)cc1 — within 1.5-fold, 4.31 µM
- CCOC(=O)c1ccc(NC(=O)c2ccc(CN3CCOCC3)cc2)cc1 — 1.7-fold lower, 2.9 µM
- O=C1CCCN1c1ccc(S(=O)(=O)N2CCC(c3ccccc3)CC2)cc1 — within 1.5-fold, 4.5 µM
- Cc1ccccc1OCCCCn1cnc2ccccc21 — within 1.5-fold, 5.73 µM
- COc1ccccc1OCC(=O)c1[nH]c(C)c(C(C)=O)c1C — within 1.5-fold, 5.33 µM
- CCOC(=O)c1sc2nc(CC(=O)OC)nc(NCc3ccc(Cl)cc3)c2c1C — 1.5-fold higher, 7.66 µM
- CNc1ccccc1C(C)(C)c1cc(-c2ccc(F)cc2)no1 — within 1.5-fold, 5.41 µM
- CN1/C(=C\C(=O)C[n+]2ccc(C(=O)c3ccccc3)cc2)C(C)(C)c2ccccc21 — within 1.5-fold, 5.22 µM
- O=C1c2ccc(Br)cc2C(=O)N1c1ccc(Cc2ccncc2)cc1 — within 1.5-fold, 5.65 µM
- CCOC(=O)C1=C(Cc2ccc(C)cc2)C(=O)c2ccccc2C1=O — within 1.5-fold, 7.04 µM
- O=C(Nc1cccc(Cl)c1)Nc1ccnc(-c2cccnc2)n1 — 1.6-fold lower, 3.2 µM
- Cc1ccc(-n2nnnc2SCn2nnc3ccccc3c2=O)c(C)c1 — within 1.5-fold, 5.32 µM
- Clc1ccc(CSc2nnc(Cn3cnc4ccccc43)o2)cc1 — within 1.5-fold, 5.02 µM
- Cn1c(CN2CCCCC2)nc2cc(NC(=O)c3cccc(Br)c3)ccc21 — within 1.5-fold, 4.55 µM
- O=C(Nc1ccn(Cc2ccccc2F)n1)c1ccc(COc2ccccc2Cl)cc1 — within 1.5-fold, 5.12 µM
- COc1ccc(Br)cc1/C(C)=N/NC1=NCCN1 — within 1.5-fold, 5.44 µM
- Cc1cccc(C)c1NC(=O)N1CCN(c2nc3ccccc3s2)CC1 — within 1.5-fold, 4.48 µM
- O=C(CSc1ccc2ccccc2c1)Nc1ccncc1 — 1.5-fold higher, 7.66 µM
- Cc1ccc(N2C(=O)c3ccccc3C2O)nc1 (centres undefined) — within 1.5-fold, 5.98 µM
- CN1/C(=C\C(=O)C[n+]2ccc3ccccc3c2)C(C)(C)c2ccccc21 — 2.9-fold lower, 1.74 µM
- CNC(=O)Oc1cccc(-c2cn3cc(Cl)ccc3n2)c1 — 2.8-fold lower, 1.78 µM
- CC1CCC2C(=O)N(c3ccccc3OC(=O)c3ccccc3)C(=O)C2C1 (centres undefined) — 1.8-fold higher, 9.22 µM
- CC(=O)Nc1ccc(-c2csc(Nc3ccc(Cl)cn3)n2)cc1 — within 1.5-fold, 6.34 µM
- Clc1ccc(OCc2cc(-c3ccccc3)no2)c(Cl)c1 — 1.6-fold higher, 8.02 µM
- Cc1ccc(S(=O)(=O)N(C)c2ccc(C(=O)N3CCN(Cc4ccc5c(c4)OCO5)CC3)cc2)cc1 — within 1.5-fold, 6.17 µM

COc1cc(OC)cc(C(=O)Nc2ccc(-c3nc4ccccc4o3)cc2)c1 was tested, and the IC50 was “inactive”.
